Assays:
[1] = system: inflammatory responses elicited by topically applied phorbol myristate acetate (PMA) or topically applied arachidonic acid (AA); assay: Topical mouse ear assay (TME), edema; assay type: in vivo; conditions: PMA or AA challenge (which not stated), N=5 mice/group
Description: TABLE II Topical Mouse Ear Assay
Method: The right ears of mice (5 mice per group) were treated topically with either […] or 1000 μg AA alone or with the test compound in 25 μl of vehicle. The vehicle was water/pyridine/acetone (1:2:97). A control group of mice received the vehicle only. The mice were allowed food and water ad libitum during the treatment period; 2 hours for AA and 4 hours for PMA. The mice were sacrificed by cervical dislocation and a 6 mm diameter disc of tissue punched from both the treated and untreated ears. The tissue biopsies were immediately weighed and the weight increase of the treated ear relative to the weight of the untreated ear determined.
All of the data are expressed as the mean±SEM, N=5 mice/group.

[2] = system: erythema induced on the skin of guinea pigs by UV radiation; assay: U.V. erythema assay; assay type: in vivo; conditions: topical, mean of 3 animals
Description: The U.V. erythema assay by which topical anti-inflammatory activity is determined, is based on the ability of the compounds of Formula I to inhibit the erythema induced on the skin of guinea pigs by UV radiation. It has been substantiated by recent studies that prostaglandin synthesis and the release thereof may be the primary process involved in the production of erythema. A protocol of the assay and some results thereof are summarized below in Table III.
Guinea pigs were depilated and stabilized for 30 minutes. Following anesthesia with Nembutal (35 mg/kg), they were exposed to a U.V. lamp for 45 minutes at a distance of seven inches from the abdominal surface. Compound was applied topically (seven applications in a total of 0.1 ml vehicle) 15 minutes post exposure. […]
Vehicle 1774--85% EtOH, 12% Propylene Glycol, 3% Methyl Salicylate
A numerical value 0-5 was assigned to the degree of erythema observed under standard lighting conditions. Drug effect on the developing erythema was calculated as follows: [formula] Results: % Inhibition of Erythema by (a) N-(2-hydroxy-5-methoxybenzyl)aniline

[3] = system: inflammatory responses elicited by topically applied phorbol myristate acetate (PMA) or topically applied arachidonic acid (AA); conditions: previously established; cited from earlier work

COc1ccc(O)c(CNc2cccc3nsnc23)c1 [B, 4-(2-hydroxy-5-methoxybenzylamino)-2,1,3-benzothiadiazole]
Edema (% inhibition) ([1]; dosage 300 μg): 44%

COc1ccc(O)c(CNc2nc3ccccc3[nH]2)c1 [C, 2-(2-hydroxy-5-methoxybenzylamino)benzimidazole]
Edema (% inhibition) ([1]; dosage 300 μg): 80%

COc1ccc(O)c(CNc2ccccc2)c1 [N-(2-hydroxy-5-methoxybenzyl)aniline]
% Inhibition of Erythema, 2 Hr. ([2]; 0.1 mg): 19.3% | % Inhibition of Erythema, 3 Hr. ([2]; 0.1 mg): 16.7% | % Inhibition of Erythema, 4 Hr. ([2]; 0.1 mg): 15.0% | % Inhibition of Erythema, 6 Hr. ([2]; 0.1 mg): 6.7% | % Inhibition of Erythema, 24 Hr. ([2]; 0.1 mg): 0% | % Inhibition of Erythema, 2 Hr. ([2]; 0.3 mg): 55.3% | % Inhibition of Erythema, 3 Hr. ([2]; 0.3 mg): 50.0% | % Inhibition of Erythema, 4 Hr. ([2]; 0.3 mg): 46.7% | % Inhibition of Erythema, 6 Hr. ([2]; 0.3 mg): 35.0% | % Inhibition of Erythema, 24 Hr. ([2]; 0.3 mg): 0% | % Inhibition of Erythema, 2 Hr. ([2]; 1.0 mg): 80.3% | % Inhibition of Erythema, 3 Hr. ([2]; 1.0 mg): 91.7% | % Inhibition of Erythema, 4 Hr. ([2]; 1.0 mg): 76.7% | % Inhibition of Erythema, 6 Hr. ([2]; 1.0 mg): 63.3% | % Inhibition of Erythema, 24 Hr. ([2]; 1.0 mg): 26.7% | % Inhibition of Erythema, 2 Hr. ([2]; 3.0 mg): 100% | % Inhibition of Erythema, 3 Hr. ([2]; 3.0 mg): 100% | % Inhibition of Erythema, 4 Hr. ([2]; 3.0 mg): 63.3% | % Inhibition of Erythema, 6 Hr. ([2]; 3.0 mg): 43.3% | % Inhibition of Erythema, 24 Hr. ([2]; 3.0 mg): 33.3%

COc1ccc2c(c1)c(CC(=O)O)c(C)n2C(=O)c1ccc(Cl)cc1 [Indomethacin, reference compound]
Edema (% inhibition) ([1]; dosage 1000 μg): 88% | activity in the topical mouse ear assay [3]: active

C[C@@H]1C[C@H]2[C@@H]3CCC4=CC(=O)C=C[C@]4(C)[C@@]3(F)[C@@H](O)C[C@]2(C)[C@@]1(O)C(=O)CO [Dexamethasone, reference compound]
Edema (% inhibition) ([1]; dosage 150 μg): 100% | activity in the topical mouse ear assay [3]: active

COc1ccc(O)c(CNc2cccs2)c1 [A, 2-(2-hydroxy-5-methoxybenzylamino)thiophene]
Edema (% inhibition) ([1]; dosage 300 μg): 77%
